Data on 26 compounds can be found in US4146631A, “Benzamide derivatives” (May & Baker Limited, priority 1976, dated 1979).

Data set [1] is described as follows: Acute oral toxicity in mice. Conditions: mouse, in vivo, highest dose used 1000 mg/kg, read-out: LD50 (doses lethal to 50% of mice tested). The source says: Mice were each treated orally with one of the compounds of formula I, and they were observed daily until there had been at least 3 consecutive days without any deaths. The LD50 figures obtained (doses lethal to 50% of mice tested) are shown below in Table IV, expressed in mg/kg animal body weight.
The symbol ">" means "greater than" in this specification. Where the LD50 is said to be ">1000," a more precise estimation of the LD50 was not possible because the numbers of deaths was too small, even at the highest dose used, 1000 mg/kg.

Data set [2] can be described thus: Acute intravenous toxicity in mice. Conditions: mouse, in vivo. The source says:
Mice were each treated intravenously with an aqueous solution of the triethanolamine salt or sodium salt of one of the compounds of formula I, and they were observed until there had been at least 3 consecutive days without any deaths. The LD50 figures obtained (doses lethal to 50% of mice tested) are shown below in Table V, expressed in mg/kg animal body weight. In Table V, "Na" means that the sodium salt was used and "T" means that the triethanolamine salt was used.
The aqueous solutions were prepared as follows:
A mixture of the test compound and water was treated gradually with triethanolamine until complete solution occurred. The solution was then diluted with water to a concentration of test compound of either 1% w/v or 2% w/v.
The test compound was dissolved in aqueous sodium hydroxide (1N) and the solution was brought to pH 8 by treatment with hydrochloric acid. The solution was then diluted with water to a concentration of test compound of 2% w/v.
Various volumes of these solutions were then administered to the mice.

In data set [3] the test system is passive cutaneous anaphylactic (PCA) reaction. Nature of the data set: Passive cutaneous anaphylactic (PCA) reaction, reagin-allergen combination, in rats. Format: in vivo. Conditions: Rattus norvegicus; for ED100: intravenous, just before injection of allergen, read-out: ED100 (intravenous dose which produces 100% inhibition of the PCA reaction); for inhibition in vivo at 100 mg/kg: oral dose of 100 mg/kg; for inhibition in vivo at 100 mg/kg / ED50: thirty minutes before intravenous allergen; for ED50: oral, read-out: ED50 (oral dose which produces 50% inhibition of the PCA reaction). The source says: In pharmacological tests the benzamide derivatives of general formula I suppress the passive cutaneous anaphylactic (PCA) reaction resulting from combination of tissue-fixed reaginic antibodies with the appropriate antigenic material (termed reagin-allergen combination) and carried out in an essentially similar manner to that described by Ogilvie [Nature (Lond.), (1964), 204, 91-92; Immunology, (1967), 12, 112-131]. In the method used to test these compounds sera were obtained from rats which had been infected with larvae of the nematode parasite Nippostrongylus brasiliensis; as a result of the parasitic infestation reaginic antibodies are elaborated in the host mammal and are found in sera removed from such animals. Other, non-infected, rats received intradermal injections of appropriate dilutions of such sera and were then given the allergenic material along with Evans' blue dye intravenously forty-eight hours later.
The allergenic material consisted of supernatant fluid after centrifugation of homogenates of adult Nippostrongylus brasiliensis worms which had been macerated in Tyrode's solution. The sites of PCA reactions were visualised by the effusion of Evan's blue dye from the circulation into those areas as a result of increased capillary permeability caused by the release of biologically-active substances from cells where reagin-allergen combination had occurred. The new compounds when given intravenously to the rats just before injection of allergen, or administered orally thirty minutes before intravenous injection of allergen, were able to prevent the development of the PCA reaction, as shown below in Table I, Table II and Table III.

Where [4] appears, read: sodium salt (Na), 2% w/v test solution.
Where [5] appears, read: triethanolamine salt (T), 2% w/v test solution.

One may read the LD50 as the dose at which mortality reaches 50%. One may read the inhibition in vivo as the relative decrease from the control value, in per cent. Broadly, the ED50 is the dose at which the effect has come halfway, by size or by number of responders.

As to `Cc1ccc(O)c(C(=O)Nc2nnn[nH]2)c1` [AG, 2-hydroxy-5-methyl-N-(tetrazol-5-yl)benzamide], the LD50 in data set [1] was more than 1000 mg/kg; in data set [2] (setting [4]) it was 670 mg/kg. In addition, the ED100 in data set [3] was found to be 1 mg/kg.
Turning to `Cc1cccc(C(=O)Nc2nnn[nH]2)c1O` [AH, 2-hydroxy-3-methyl-N-(tetrazol-5-yl)benzamide], the median lethal dose (LD50) in data set [1] is more than 1000 mg/kg. In addition, the median lethal dose (LD50) in data set [2] (setting [5]) stood at 770 mg/kg. Further, in data set [3], the ED100 came to 0.5 mg/kg, the inhibition in vivo at 100 mg/kg came out at 82% and the ED50 turned out to be 10 mg/kg.
For `O=C(Nc1nnn[nH]1)c1cccc([N+](=O)[O-])c1O` [AI, 2-hydroxy-3-nitro-N-(tetrazol-5-yl)benzamide], the LD50 in data set [1] is more than 1000 mg/kg. Also, in data set [2] (setting [5]), the median lethal dose (LD50) was more than 1000 mg/kg. In addition, in data set [3], the ED100 stood at 0.5 mg/kg, the inhibition in vivo at 100 mg/kg came to 68% and the ED50 fell in the range of 5 to 30 mg/kg.
For `O=C(Nc1nnn[nH]1)c1cc([N+](=O)[O-])ccc1O` [AO, 2-hydroxy-5-nitro-N-(tetrazol-5-yl)benzamide], the LD50 in data set [1] is more than 1000 mg/kg. Moreover, the LD50 in data set [2] (setting [5]) stood at 870 mg/kg. In data set [3], the ED100 was found to be 0.2 mg/kg, the inhibition in vivo at 100 mg/kg came to 48% and the ED50 turned out to be 100 mg/kg.
For the compound `COc1ccc(O)c(C(=O)Nc2nnn[nH]2)c1` [AP, 2-hydroxy-5-methoxy-N-(tetrazol-5-yl)benzamide], the LD50 in data set [1] is more than 1000 mg/kg. For the same compound, in data set [2] (setting [4]), the LD50 came to 950 mg/kg. In addition, in data set [3], the ED100 was 0.5 mg/kg, the inhibition in vivo at 100 mg/kg was 75% and the ED50 turned out to be 100 mg/kg.
`CCCCN(CCCC)S(=O)(=O)c1ccc(O)c(C(=O)Nc2nnn[nH]2)c1` [AQ, 5-(N,N-dibutylsulphamoyl)-2-hydroxy-N-(tetrazol-5-yl)benzamide]: the median lethal dose (LD50) in data set [1] is more than 1000 mg/kg; in data set [2] (setting [4]), 280 mg/kg.
For the compound `CC(=O)c1cc(C)cc(C(=O)Nc2nnn[nH]2)c1O` [AR, 3-acetyl-2-hydroxy-5-methyl-N-(tetrazol-5-yl)benzamide], in data set [1], the LD50 is more than 1000 mg/kg. The median lethal dose (LD50) in data set [2] (setting [5]) is 430 mg/kg. In data set [3], the ED100 was 0.1 mg/kg, the inhibition in vivo at 100 mg/kg was determined as 42% and the median effective dose (ED50) came to 0.75 mg/kg.
The like results for `CCOc1cccc(C(=O)Nc2nnn[nH]2)c1O` [AS, 3-ethoxy-2-hydroxy-N-(tetrazol-5-yl)benzamide] were, in that order, more than 1000 mg/kg, 560 mg/kg, 1 mg/kg, 76% and 10 mg/kg.
On to `CC(=O)c1cc(C(=O)Nc2nnn[nH]2)c(O)c(C(C)=O)c1O` [AW, 3,5-diacetyl-2,4-dihydroxy-N-(tetrazol-5-yl)benzamide], for which the results for the median lethal dose (LD50) in data set [1] and in data set [2] (setting [5]) were more than 1000 mg/kg and 710 mg/kg, respectively. Moreover, the ED100 in data set [3] was determined as 5 mg/kg. Further, the inhibition in vivo at 100 mg/kg in data set [3] turned out to be 84%.
Take `O=C(Nc1nnn[nH]1)c1ccc(Cl)cc1O` [AX, 4-chloro-2-hydroxy-N-(tetrazol-5-yl)benzamide]: the median lethal dose (LD50) in data set [1] is more than 1000 mg/kg; in data set [2] (setting [5]) it was 260 mg/kg.
Turning to `CC(C)(C)c1ccc(C(=O)Nc2nnn[nH]2)c(O)c1` [BA, 4-tert-butyl-2-hydroxy-N-(tetrazol-5-yl)benzamide], the values for the 50% lethal dose (LD50) in data set [1] and in data set [2] (setting [5]) were more than 1000 mg/kg and 230 mg/kg, respectively. The ED100 in data set [3] is 10 mg/kg. For the same compound, the inhibition in vivo at 100 mg/kg in data set [3] was 37%.
`CC(=O)Nc1ccc(C(=O)Nc2nnn[nH]2)c(O)c1` [BB, 4-acetylamino-2-hydroxy-N-(tetrazol-5-yl)benzamide]: in data set [1], the 50% lethal dose (LD50) is more than 1000 mg/kg. Moreover, the LD50 in data set [2] (setting [5]) was 645 mg/kg. Moreover, in data set [3], the ED100 stood at 1 mg/kg and the inhibition in vivo at 100 mg/kg was 26%.
`O=C(Nc1nnn[nH]1)c1cc(-c2ccccc2)ccc1O` [BG, 2-hydroxy-5-phenyl-N-(tetrazol-5-yl)benzamide]: the median lethal dose (LD50) in data set [1] was more than 1000 mg/kg; in data set [2] (triethanolamine salt (T), 1% w/v test solution), 200 mg/kg. Further, in data set [3], the ED100 came out at 10 mg/kg.
As to `CSc1cccc(C(=O)Nc2nnn[nH]2)c1O` [BI, 2-hydroxy-3-methylthio-N-(tetrazol-5-yl)benzamide], the 50% lethal dose (LD50) in data set [2] (setting [5]) turned out to be 580 mg/kg. Besides, the ED100 in data set [3] worked out at 20 mg/kg.
With `Cc1cc(C(=O)Nc2nnn[nH]2)c(O)c(S(=O)(=O)NC(C)(C)C)c1` [BT, 3-(N-tert-butylsulphamoyl)-2-hydroxy-5-methyl-N-(tetrazol-5-yl)benzamide], the LD50 is more than 1000 mg/kg in data set [1] and 500 mg/kg in data set [2] (setting [4]).
As to `CCc1cc(C(C)=O)c(O)c(C(=O)Nc2nnn[nH]2)c1` [BW, 3-acetyl-5-ethyl-2-hydroxy-N-(tetrazol-5-yl)benzamide], the LD50 in data set [1] is more than 1000 mg/kg. Moreover, the LD50 in data set [2] (setting [4]) was 320 mg/kg. For the same compound, in data set [3], the ED100 amounted to 0.1 mg/kg, the inhibition in vivo at 100 mg/kg came to 51% and the 50% effective dose (ED50) was 0.1 mg/kg.
For `CC(=O)c1c(C)c(C)cc(C(=O)Nc2nnn[nH]2)c1O` [BX, 3-acetyl-2-hydroxy-4,5-dimethyl-N-(tetrazol-5-yl)benzamide], the median lethal dose (LD50) is more than 1000 mg/kg in data set [1] and 870 mg/kg in data set [2] (setting [5]). For the same compound, the ED100 in data set [3] worked out at 20 mg/kg.
Consider `CC(=O)c1cccc(C(=O)Nc2nnn[nH]2)c1O` [CA, 3-acetyl-2-hydroxy-N-(tetrazol-5-yl)benzamide], for which the 50% lethal dose (LD50) in data set [1] was more than 1000 mg/kg. Moreover, in data set [2] (setting [5]), the 50% lethal dose (LD50) worked out at 500 mg/kg. In data set [3], the ED100 is 0.1 mg/kg and the inhibition in vivo at 100 mg/kg came to 64%.
For the compound `CCC(=O)c1cc(C)cc(C(=O)Nc2nnn[nH]2)c1O` [CE, 2-hydroxy-5-methyl-3-propionyl-N-(tetrazol-5-yl)benzamide], the LD50 in data set [1] was more than 1000 mg/kg. Also, the 50% lethal dose (LD50) in data set [2] (setting [5]) turned out to be 270 mg/kg. In addition, in data set [3], the ED100 was found to be 0.05 mg/kg, the inhibition in vivo at 100 mg/kg was determined as 99% and the 50% effective dose (ED50) came to 0.4 mg/kg.
The corresponding values for `CCC(=O)c1cc(CC)cc(C(=O)Nc2nnn[nH]2)c1O` [CF, 5-ethyl-2-hydroxy-3-propionyl-N-(tetrazol-5-yl)benzamide] are more than 1000 mg/kg, 280 mg/kg, 0.05 mg/kg, 41% and 0.27 mg/kg.
The corresponding values for `N#Cc1cccc(C(=O)Nc2nnn[nH]2)c1O` [CJ, 3-cyano-2-hydroxy-N-(tetrazol-5-yl)benzamide] are more than 1000 mg/kg, more than 1000 mg/kg, 0.5 mg/kg, 50% and 37 mg/kg.
For the compound `CC(=O)c1cc(C(=O)Nc2nnn[nH]2)c(O)c([N+](=O)[O-])c1` [CQ, 5-acetyl-2-hydroxy-3-nitro-N-(tetrazol-5-yl)benzamide], in data set [1], the LD50 was more than 1000 mg/kg. Also, the LD50 in data set [2] (setting [5]) is 890 mg/kg. Moreover, in data set [3], the ED100 was 0.2 mg/kg and the inhibition in vivo at 100 mg/kg turned out to be 56%.
For the compound `Cc1cc(C(=O)Nc2nnn[nH]2)c(O)c(C(=O)c2ccccc2)c1` [CR, 3-benzoyl-2-hydroxy-5-methyl-N-(tetrazol-5-yl)benzamide], the 50% lethal dose (LD50) in data set [1] is more than 1000 mg/kg; in data set [2] (setting [5]), 350 mg/kg. Moreover, the ED100 in data set [3] was 1 mg/kg. In addition, in data set [3], the inhibition in vivo at 100 mg/kg amounted to 22%.
On to `O=C(Nc1nnn[nH]1)c1cc(Cl)ccc1O` [Compound AD, 5-chloro-2-hydroxy-N-(tetrazol-5-yl)benzamide], for which the LD50 in data set [1] was more than 1000 mg/kg. Besides, the 50% lethal dose (LD50) in data set [2] (setting [4]) came to 480 mg/kg. For the same compound, in data set [3], the ED100 came to 1 mg/kg, the inhibition in vivo at 100 mg/kg worked out at 94% and the ED50 was 13 mg/kg.
In the case of `O=C(Nc1nnn[nH]1)c1cc([N+](=O)[O-])cc([N+](=O)[O-])c1O` [Compound AE, 2-hydroxy-3,5-dinitro-N-(tetrazol-5-yl)benzamide], the LD50 in data set [1] was more than 1000 mg/kg. Moreover, in data set [2] (setting [5]), the 50% lethal dose (LD50) came to 490 mg/kg. Also, in data set [3], the ED100 turned out to be 0.05 mg/kg, the inhibition in vivo at 100 mg/kg was 80% and the ED50 was 0.1 to 0.45 mg/kg.
`Cc1cc(C#N)c(O)c(C(=O)Nc2nnn[nH]2)c1` [Compound CL, 3-cyano-2-hydroxy-5-methyl-N-(tetrazol-5-yl)benzamide]: in data set [3], the ED100 is 2 mg/kg and the inhibition in vivo at 100 mg/kg was found to be 26%.
